The test system of one test is cAMP in PN cells. The experiment in a line: Cyclic AMP enzyme immunoassay in cells. Format: cell-based, mouse. Conditions: for increase of cAMP activity: PN cells treated with forskolin or IBMX. How it is done:
FIG. 4A, FIG. 4B, FIG. 4C, FIG. 4D, and FIG. 4E show (FIG. 4A-FIG. 4B) cAMP levels are reduced by VX-809. (FIG. 4A) cAMP levels in mouse tissue were reduced by VX-809. The kidney samples (n=6) analyzed were taken from those depicted in FIG. 1. (FIG. 4B) Confluent PN and PH cells were treated with VX-809 (10 μM) or DMSO for 16 hand then treated with forskolin (100 μM) for 30 min before the cells were harvested for the assay. Columns represent means±SEM. Statistical analysis was performed using a two-tailed Student's t-test. Each set of data is from three individual wells; Note that resting cAMP is greater in PN vs PH cells as previously shown (25). Also note that forskolin caused a large increase in cAMP. A smaller increase occurred with IBMX. However, the increase induced by forskolin alone was similar to that by IBMX plus forskolin. […] (FIG. 4C, FIG. 4D, and FIG. 4E) Adenylyl cyclase expression. (FIG. 4C) Western blot showing the expression of adenylyl cyclase (AC) 6 and AC3 in treated and control PN cells. (FIG. 4D-FIG. 4E) Columns represent means±SEM of the AC3 and AC6 expression. The data were analyzed by non-parametric t-test. The experiment was repeated four times. For all graphs, *P<0.05, **P<0.01, and ***P<0.001;
It has been shown previously in both animal and cell culture models of ADPKD that cells lacking functional PC1 have elevated cAMP levels when compared to normal. To assess the effect of CFTR correctors, cAMP activity was measured in PC1 conditional knockout mouse kidneys and in PN cells that were either left untreated or treated with VX-809. […] Cells were treated with forskolin, which increased cAMP levels drastically (FIG. 4B). It should be noted that VX-809 reduced the forskolin-induced increase in cAMP, indicating a direct action of VX-809 on adenylyl cyclase activity. […] Treating PN cells with forskolin or IBMX (FIG. 4B) increased the cAMP activity by approximately 10-fold.
Cyclic AMP assay. Confluent cells were treated with VX-809 (10 μM) or DMSO for 16 h before being harvested for assay. Cyclic AMP levels were measured with a direct cAMP Enzyme Immunoassay Kit (Sigma, #CA200) according to the manufacturer's protocol. The results are expressed as pmole/ml. Statistical analysis was performed using a two-tailed Student's t-test.

In test [1] the test system is Hsp27, Hsp70, and Hsp90 in PN cells. The test can be described thus: Disappearance of Hsps after translation block with cycloheximide. Type of test: cell-based, mouse. Conditions: cycloheximide 25 μM alone, over 8 h. How it is done: FIG. 9A, FIG. 9B, FIG. 9C, FIG. 9D, FIG. 9E, FIG. 9F, FIG. 9G, and FIG. 9H show Hsp27, HSp70, and Hsp90 expression in PN cells treated with VX-809 and/or cycloheximide. (A) Pkd1 null (PN) cells were treated with VX-809 (10 μM) and/or with cycloheximide (25 μM) for indicated time points before being harvested for the assay. (FIG. 9A) Western blot showing expression of Hsp27, Hsp70, and Hsp90 in VX-809-(16 h), cycloheximide-treated, or control PN cells. ((FIG. 9B. (FIG. 9C, and (FIG. 9D) Columns represent averages±standard errors of Hsp27, Hsp70, and Hsp90 expression in cells treated with VX-809 and/or cycloheximide. ((FIG. 9E) Western blot showing expression of Hsp27, Hsp70, and Hsp90 in PN cells treated with VX-809+cycloheximide or control PN cells. ((FIG. 9F, FIG. 9G, and FIG. 9H) Columns represent averages±standard errors of Hsp27, Hsp70, and Hsp90 expression in cells treated only with cycloheximide or in control PN cells. Data were analyzed by non-parametric t-test. The experiments were repeated 3-5 times. *P<0.05, **P<0.01;
To gain more insight into the mechanism whereby VX-809 alters Hsp protein levels, translation was inhibited by using cycloheximide and the disappearance of the three Hsps was monitored. […] Hsp90 was reduced by approximately 25%, and Hsp27 was unchanged.

Turning to `C=C[C@@]1(C)CC(=O)[C@]2(O)[C@@]3(C)[C@@H](O)CCC(C)(C)[C@@H]3[C@H](O)[C@H](OC(C)=O)[C@@]2(C)O1` [forskolin], the “increase of cAMP activity” value with cAMP in PN cells is on record as “approximately 10 fold”. The “elevation of cAMP activity” value in the test with cAMP in PN cells (forskolin, as stated at the end of Example 4) is recorded as approximately 500 fold.

Turning to `C[C@@H]1C[C@@H]([C@H](O)CC2CC(=O)NC(=O)C2)C(=O)[C@@H](C)C1` [cycloheximide], the “steady-state levels of each of the Hsps” value in test [1] was “unchanged”.

Turning to `CC(C)Cn1c(=O)n(C)c(=O)c2[nH]cnc21` [IBMX, 3-isobutyl-1-methylxanthine], the “increase of cAMP activity” value in the test on cAMP in PN cells is on record as “approximately 10 fold”.

The values are drawn from patent publication US20220133702A1, “CYSTIC FIBROSIS TRANSMEMBRANE CONDUCTANCE REGULATOR MODULATORS FOR TREATING AUTOSOMAL DOMINANT POLYCYSTIC KIDNEY DISEASE” (The Johns Hopkins University, priority 2020, published 2022).
